From patent US9938262B2, “Benzamides” (Merck Patent GmbH, priority 2011, dated 2018)

Biological target: T1, FSHR (Homo sapiens, UniProt P23945)
T1 construct: expressed in transfected cells; host or cells: CHO (Cho-FSHR-LUC-1-1-43)
Assay: EC50 of cyclic AMP production in CHO FSHR cells + EC20 FSH (Assay A)
Format: cell-based
Settings: Table 2; for EC50: CHO FSHR cells + EC20 FSH, read-out: Assay A EC50 of cyclic AMP production
Method in brief: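 cAMP HTRF ratio (665/620 nm) read after 1 h, 37 °C exposure of CHO-FSHR cells to compound in presence of EC20 FSH ([…]) and IBMX 200 μM. Responses given relative to FSH standard maximum; EC50 derived.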

T1 sequence (P23945 18-695): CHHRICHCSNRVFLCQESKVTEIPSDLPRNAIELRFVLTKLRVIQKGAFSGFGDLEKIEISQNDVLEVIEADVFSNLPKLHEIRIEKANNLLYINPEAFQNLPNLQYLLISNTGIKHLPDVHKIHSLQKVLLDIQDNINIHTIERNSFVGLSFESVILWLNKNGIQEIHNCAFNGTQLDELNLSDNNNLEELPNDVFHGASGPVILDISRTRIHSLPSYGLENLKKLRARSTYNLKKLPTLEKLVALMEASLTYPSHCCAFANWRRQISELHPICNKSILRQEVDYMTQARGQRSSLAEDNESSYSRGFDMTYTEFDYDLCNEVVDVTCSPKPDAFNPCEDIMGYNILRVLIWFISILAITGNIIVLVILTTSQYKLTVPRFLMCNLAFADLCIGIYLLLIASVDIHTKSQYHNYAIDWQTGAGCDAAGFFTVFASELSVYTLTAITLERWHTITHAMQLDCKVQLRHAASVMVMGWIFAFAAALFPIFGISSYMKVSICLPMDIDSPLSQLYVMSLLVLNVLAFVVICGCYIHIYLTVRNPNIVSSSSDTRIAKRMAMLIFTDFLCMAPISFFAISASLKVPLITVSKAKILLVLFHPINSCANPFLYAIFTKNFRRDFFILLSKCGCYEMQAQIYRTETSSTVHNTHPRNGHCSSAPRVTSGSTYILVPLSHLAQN
T1 sequence (P01215 25-116 partner): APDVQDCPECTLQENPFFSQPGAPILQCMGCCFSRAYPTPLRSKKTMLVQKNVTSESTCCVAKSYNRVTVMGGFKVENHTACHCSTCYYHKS
T1 sequence (P01225 19-129 partner): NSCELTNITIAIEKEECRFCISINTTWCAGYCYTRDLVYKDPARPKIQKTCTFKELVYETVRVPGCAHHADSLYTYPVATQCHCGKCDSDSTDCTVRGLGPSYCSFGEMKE

Row | EC50 | activation at 5 µM (1 h, 5 μM, effect relative to maximum response of the FSH standard) | Structure (SMILES)
1 | 0.1 to 1 µM | – | O=C(NCCCN1CCCC1=O)c1ccc(N2CCN(c3ccccc3C3CC3)CC2)c(NC(=O)c2coc(C3CC3)n2)c1 [Compound 524]
2 | 0.1 to 1 µM | – | N#Cc1ccccc1N1CCN(c2ccc(C(=O)NCCCN3CCCC3=O)cc2NC(=O)c2coc(C3CC3)n2)CC1 [Compound 525]
3 | 0.1 to 1 µM | – | Cc1ccccc1N1CCN(c2ccc(C(=O)NCc3cccc(C(F)(F)F)c3)cc2NC(=O)c2ccco2)CC1 [Compound 527]
4 | 1 to 10 µM | – | Cc1ccccc1N1CCN(c2ccc(C(=O)NCc3cccc(C(F)(F)F)c3)cc2NC(=O)c2coc(C3CC3)n2)CC1 [Compound 528]
5 | 1 to 10 µM | – | COc1ccnc(N2CCN(c3ccc(C(=O)NCCCN4CCCC4=O)cc3NC(=O)c3coc(C4CC4)n3)CC2)c1 [Compound 530]
6 | > 10 µM | – | NC(=O)c1cccnc1N1CCN(c2ccc(C(=O)NCCCN3CCCC3=O)cc2NC(=O)c2coc(C3CC3)n2)CC1 [Compound 532]
7 | 1 to 10 µM | – | Cc1cncc(N2CCN(c3ccc(C(=O)NCCCN4CCCC4=O)cc3NC(=O)c3coc(C4CC4)n3)CC2)n1 [Compound 533]
8 | 0.1 to 1 µM | – | Cc1ccccc1N1CCN(c2ccc(C(=O)NCC[C@H]3COC(C)(C)O3)cc2NC(=O)c2coc(C3CC3)n2)CC1 [Compound 535]
9 | 0.1 to 1 µM | – | CCN(CC)Cc1cccc(CNC(=O)c2ccc(N3CCN(c4ccccc4C)CC3)c(NC(=O)c3coc(C4CC4)n3)c2)c1 [Compound 536]
10 | 0.1 to 1 µM | – | CCN(C)Cc1cccc(CNC(=O)c2ccc(N3CCN(c4ccccc4C)CC3)c(NC(=O)c3coc(C4CC4)n3)c2)c1 [Compound 537]
11 | 0.1 to 1 µM | – | Cc1ccccc1N1CCN(c2ccc(C(=O)NCc3cccc(CN4CCCC4)c3)cc2NC(=O)c2coc(C3CC3)n2)CC1 [Compound 538]
12 | 1 to 10 µM | – | Cc1ccccc1C1(O)CCN(c2ccc(C(=O)NCCCN3CCCC3=O)cc2NC(=O)c2coc(C3CC3)n2)CC1 [Compound 539]
13 | 1 to 10 µM | – | Cc1ccccc1N1CCN(c2ccc(C(=O)NCCCN3CCCC3=O)cc2NC(=O)C2CC2(F)F)CC1 (centres unmarked) [Compound 540]
14 | 0.1 to 1 µM | – | Cc1ccccc1N1CCN(c2ccc(C(=O)NOC[C@H](O)CO)cc2NC(=O)c2coc(C3CC3)n2)CC1 [Compound 542]
15 | 1 to 10 µM | – | CCN(CC)Cc1cccc(CNC(=O)c2ccc(N3CCN(c4ccccc4C)CC3)c(NC(=O)c3ccc(C)o3)c2)c1 [Compound 543]
16 | 1 to 10 µM | – | Cc1ccc(C(=O)Nc2cc(C(=O)NCc3cccc(CN(C)C)c3)ccc2N2CCN(c3ccccc3C)CC2)o1 [Compound 544]
17 | 1 to 10 µM | – | Cc1ccc(C(=O)Nc2cc(C(=O)NC(C)(C)c3cccc(CN(C)C)c3)ccc2N2CCN(c3ccccc3C)CC2)o1 [Compound 545]
18 | 1 to 10 µM | – | Cc1ccc(C(=O)Nc2cc(C(=O)NCc3cccc(CN4CCCC4)c3)ccc2N2CCN(c3ccccc3C)CC2)o1 [Compound 546]
19 | 1 to 10 µM | – | CCN(C)Cc1cccc(CNC(=O)c2ccc(N3CCN(c4ccccc4C)CC3)c(NC(=O)c3ccc(C)o3)c2)c1 [Compound 547]
20 | 1 to 10 µM | – | Cc1ccccc1N1CCN(c2ccc(C(=O)NCCc3cn(C)cn3)cc2N(C(=O)C(F)(F)F)C(=O)C(F)(F)F)CC1 [Compound 548]
21 | 0.1 to 1 µM | – | Cc1ccccc1N1CCN(c2ccc(C(=O)NC[C@@H]3OC(C)(C)O[C@H]3CN)cc2NC(=O)c2coc(C3CC3)n2)CC1 [Compound 549]
22 | < 0.1 µM | – | Cc1ccccc1N1CCN(c2ccc(C(=O)N[C@@H]3C[C@H](CO)[C@@H](O)[C@H]3O)cc2NC(=O)c2coc(C3CC3)n2)CC1 [Compound 551]

Row | EC50 | activation at 5 µM (1 h, 5 μM, effect relative to maximum response of the FSH standard) | Structure (SMILES)
23 | < 0.1 µM | – | Cc1ccccc1N1CCN(c2ccc(C(=O)NC3CCCC(O)C3)cc2NC(=O)c2coc(C3CC3)n2)CC1 (centres unmarked) [Compound 552]
24 | 0.1 to 1 µM | – | O=C(NCCCN1CCCC1=O)c1ccc(N2CCN(c3cccc4[nH]ccc34)CC2)c(NC(=O)c2coc(C3CC3)n2)c1 [Compound 553]
25 | – | 40% | O=C(NCCCN1CCCC1=O)c1ccc(N2CCN(c3ncncn3)CC2)c(NC(=O)c2coc(C3CC3)n2)c1 [Compound 554]
26 | 1 to 10 µM | – | O=C(NCCCN1CCCC1=O)c1ccc(N2CCN(c3cccnc3)CC2)c(NC(=O)c2coc(C3CC3)n2)c1 [Compound 555]
27 | 1 to 10 µM | – | Cc1ccccc1N1CCN(c2ccc(C(=O)NC[C@H](O)[C@@H](O)CN)cc2NC(=O)c2coc(C3CC3)n2)CC1 [Compound 561]
28 | 0.1 to 1 µM | – | COC(C(=O)Nc1cc(C(=O)NCCCN2CCCC2=O)ccc1N1CCN(c2ccccc2C)CC1)c1ccccc1 (centres unmarked) [Compound 562]
29 | > 10 µM | – | Cc1ccccc1N1CCN(c2ccc(C(=O)NCc3cccc(CN(C)C)c3)cc2NS(C)(=O)=O)CC1 [Compound 563]
30 | 0.1 to 1 µM | – | Cc1ccccc1N1CCN(c2ccc(C(=O)NCc3ccc(F)c(CN(C)C)c3)cc2NC(=O)c2coc(C3CC3)n2)CC1 [Compound 564]
31 | 0.1 to 1 µM | – | Cc1ccccc1N1CCN(c2ccc(C(=O)NC[C@H](O)CO)cc2NC(=O)c2coc(C3CC3)n2)CC1 [Compound 565]
32 | 0.1 to 1 µM | – | Cc1ccccc1N1CCN(c2ccc(C(=O)NC[C@H](O)c3ccccc3)cc2NC(=O)c2coc(C3CC3)n2)CC1 [Compound 566]
33 | 0.1 to 1 µM | – | Cc1ccccc1N1CCN(c2ccc(C(=O)NC[C@@H](O)CO)cc2NC(=O)c2coc(C3CC3)n2)CC1 [Compound 567]
34 | 0.1 to 1 µM | – | Cc1ccccc1N1CCN(c2ccc(C(=O)NC[C@@H](N)c3ccccc3)cc2NC(=O)c2coc(C3CC3)n2)CC1 [Compound 568]
35 | 1 to 10 µM | – | Cc1ccc2[nH]cc(CCNC(=O)c3ccc(N4CCN(c5ccccc5C)CC4)c(NC(=O)c4coc(C5CC5)n4)c3)c2c1 [Compound 569]
36 | 0.1 to 1 µM | – | Cc1ccccc1N1CCN(c2ccc(C(=O)NCCCc3cccc(O)c3)cc2NC(=O)c2coc(C3CC3)n2)CC1 [Compound 570]
37 | 0.1 to 1 µM | – | Cc1ccccc1N1CCN(c2ccc(C(=O)N3CCC4(CC3)COC4)cc2NC(=O)c2coc(C3CC3)n2)CC1 [Compound 571]
38 | < 0.1 µM | – | Cc1ccccc1N1CCN(c2ccc(C(=O)NCCCN3CCCC3=O)cc2NCc2ccco2)CC1 [Compound 572]
39 | 1 to 10 µM | – | Cc1ccc(CNc2cc(C(=O)NCc3cccc(CN(C)C)c3)ccc2N2CCN(c3ccccc3C)CC2)o1 [Compound 573]
40 | 0.1 to 1 µM | – | Cc1ccccc1N1CCN(c2ccc(C(=O)NCc3cccc(CO)c3)cc2NC(=O)c2coc(C3CC3)n2)CC1 [Compound 574]
41 | < 0.1 µM | – | Cc1ccccc1N1CCN(c2ccc(C(=O)N[C@H]3CCC[C@@H](O)C3)cc2NC(=O)c2coc(C3CC3)n2)CC1 [Compound 575]
42 | < 0.1 µM | – | Cc1ccccc1N1CCN(c2ccc(C(=O)N[C@H]3CCC[C@H](O)C3)cc2NC(=O)c2coc(C3CC3)n2)CC1 [Compound 576]
43 | < 0.1 µM | – | Cc1ccccc1N1CCN(c2ccc(C(=O)N[C@H]3CCC[C@H](O)[C@@H]3O)cc2NC(=O)c2coc(C3CC3)n2)CC1 [Compound 578]
44 | 0.1 to 1 µM | – | CCOc1cc(CCCNC(=O)c2ccc(N3CCN(c4ccccc4C)CC3)c(NC(=O)c3ccco3)c2)ccc1OC [Compound 579]

Row | EC50 | activation at 5 µM (1 h, 5 μM, effect relative to maximum response of the FSH standard) | Structure (SMILES)
45 | 0.1 to 1 µM | – | CCOc1cc(CCCNC(=O)c2ccc(N3CCN(c4ccccc4C)CC3)c(NC(=O)c3coc(C4CC4)n3)c2)ccc1OC [Compound 580]
46 | 0.1 to 1 µM | – | CCOc1cc(CCCNC(=O)c2ccc(N3CCN(c4ccccc4C)CC3)c(NC(=O)c3ccc(C)o3)c2)ccc1OC [Compound 581]
47 | 0.1 to 1 µM | – | Cc1ccccc1N1CCN(c2ccc(C(=O)NC[C@@H](O)c3ccccc3)cc2NC(=O)c2ccco2)CC1 [Compound 582]
48 | 1 to 10 µM | – | Cc1ccc(C(=O)Nc2cc(C(=O)NC[C@@H](O)c3ccccc3)ccc2N2CCN(c3ccccc3C)CC2)o1 [Compound 583]
49 | 1 to 10 µM | – | Cc1ccc(C(=O)Nc2cc(C(=O)NC[C@H](O)c3ccccc3)ccc2N2CCN(c3ccccc3C)CC2)o1 [Compound 584]
50 | < 0.1 µM | – | Cc1ccccc1N1CCN(c2ccc(C(=O)NC[C@H](O)c3ccccc3)cc2NC(=O)c2ccco2)CC1 [Compound 585]
51 | 1 to 10 µM | – | Cc1ccccc1N1CCN(c2ccc(C(=O)N3CCC4(COC4)C3)cc2NC(=O)c2ccco2)CC1 [Compound 587]
52 | 0.1 to 1 µM | – | Cc1ccc(C(=O)Nc2cc(C(=O)NCCCc3cccc(O)c3)ccc2N2CCN(c3ccccc3C)CC2)o1 [Compound 588]
53 | 0.1 to 1 µM | – | Cc1ccccc1N1CCN(c2ccc(C(=O)NCCCc3cccc(O)c3)cc2NC(=O)c2ccco2)CC1 [Compound 589]
54 | 0.1 to 1 µM | – | Cc1ccccc1N1CCN(c2ccc(C(=O)N3CC4(COC4)C3)cc2NC(=O)c2coc(C3CC3)n2)CC1 [Compound 590]
55 | > 10 µM | – | Cc1ccc(C(=O)Nc2cc(C(=O)N3CC4(COC4)C3)ccc2N2CCN(c3ccccc3C)CC2)o1 [Compound 591]
56 | 1 to 10 µM | – | Cc1ccccc1N1CCN(c2ccc(C(=O)N3CC4(COC4)C3)cc2NC(=O)c2ccco2)CC1 [Compound 592]
57 | 1 to 10 µM | – | Cc1ccc(C(=O)Nc2cc(C(=O)N3CCC4(COC4)C3)ccc2N2CCN(c3ccccc3C)CC2)o1 [Compound 593]
58 | 1 to 10 µM | – | Cc1ccccc1N1CCN(c2ccc(C(=O)N3CCC4(COC4)C3)cc2NC(=O)c2coc(C3CC3)n2)CC1 [Compound 594]
59 | 1 to 10 µM | – | N#Cc1nccnc1N1CCN(c2ccc(C(=O)NCCCN3CCCC3=O)cc2NC(=O)c2coc(C3CC3)n2)CC1 [Compound 595]
60 | 1 to 10 µM | – | O=C(NCCCN1CCCC1=O)c1ccc(N2CCN(c3cccnn3)CC2)c(NC(=O)c2coc(C3CC3)n2)c1 [Compound 596]
61 | > 10 µM | – | Cc1cc(N2CCN(c3ccc(C(=O)NCCCN4CCCC4=O)cc3NC(=O)c3coc(C4CC4)n3)CC2)ncn1 [Compound 597]
62 | 1 to 10 µM | – | Cc1nnc(N2CCN(c3ccc(C(=O)NCCCN4CCCC4=O)cc3NC(=O)c3coc(C4CC4)n3)CC2)s1 [Compound 598]
63 | > 10 µM | – | COc1cncc(N2CCN(c3ccc(C(=O)NCCCN4CCCC4=O)cc3NC(=O)c3coc(C4CC4)n3)CC2)c1 [Compound 599]
64 | 0.1 to 1 µM | – | CN(C)c1ccc(N2CCN(c3ccc(C(=O)NCCCN4CCCC4=O)cc3NC(=O)c3coc(C4CC4)n3)CC2)nn1 [Compound 602]
65 | 1 to 10 µM | – | Cc1ccccc1N1CCN(c2ccc(C(=O)NCCCN3CCCC3=O)cc2NC(=O)c2coc(C3CC3)n2)CC1=O [Compound 605]
